Reference: US20250161395A1, “SPINAL CORD REGENERATION THERAPY” (MOLEAC PTE LTD., priority 2022, published 2025)

System: NSC-34 cells
Experiment: NSC-34 cell differentiation into mature motor neurons
Format: cell-based

CC1=C(/C=C/C(C)=C/C=C/C(C)=C/C(=O)O)C(C)(C)CCC1 [RA, retinoic acid]
time to NSC-34 cell differentiation (1 μM RA): 14 days | time to NSC-34 cell differentiation (10 μM RA): 7 days
